Reference: patent US20220127262A1, “CRYSTALLINE FORM OF A CDK INHIBITOR” (Pfizer Inc., priority 2019, published 2022)

What was measured:
Type in all cases: physicochemical
[1] = Solid-state chemical stability (long term and accelerated storage), total impurities by HPLC
Method: The chemical stability of PF-06873600 anhydrous free base (Form 1) was investigated at long term storage conditions (25° C./60% RH) for an extended time period and under accelerated stability conditions (40° C./75% RH) for a shorter period. Stability testing was conducted at 25° C./60% RH for 24 months (long term conditions) and at 40° C./75% RH for 6 months (accelerated conditions) and evaluated for appearance and purity by HPLC.
(§1) Stability samples of drug substance were packaged in double low-density polyethylene (LDPE) bags and desiccant within high-density polyethylene (HDPE) drum. Photostability samples were stored in a quartz Petri dish with a quartz lid.

[2] = Photostability study under ICH conditions, light source option 2; details: for Total impurities: ICH photostability
Description: A photostability study was run under ICH conditions using light source option 2 ICH conditions.
as §1

[3] = Water sorption and desorption, automated vapor sorption analyzer
Method: Water sorption and desorption studies were conducted on automated vapor sorption analyzer (TA instruments Q5000 SA). The microbalance was calibrated using a 100 mg standard weight. The relative humidity sensor was calibrated at 5.0, 11.3, 32.8, 52.8, 75.3, and 84.3% RH (25° C.) using saturated salt solutions. Approximately 30 mg of the powder sample was placed in the quartz sample holder and dried at ≤3% relative humidity (RH) at 25° C. The attainment of equilibrium was assumed when the weight change of the sample was <0.001 wt % in 5 min or by a maximum equilibration time of 120 minutes. […] The attainment of equilibrium was again assumed when the weight change of the sample was <0.001 wt % in 5 min or by a maximum equilibration time of 120 minutes. The weight gain at each of the % RH steps is based on the weight after the initial drying step. The data were analyzed using Universal Analysis software V4.5A.

`C[C@@]1(O)CCC[C@H]1n1c(=O)c(C(F)F)cc2cnc(NC3CCN(S(C)(=O)=O)CC3)nc21` [PF-06873600 free base (Form 1), 6-(difluoromethyl)-8-[(1R,2R)-2-hydroxy-2-methylcyclopentyl]-2-{[1-(methylsulfonyl)piperidin-4-yl]amino}-pyrido[2,3-d]pyrimidin-7(8H)-one] showed a Total impurities ([1]; 25° C./60% RH, 3 mos.) of 0.49%, a Total impurities ([1]; 25° C./60% RH, 6 mos.) of 0.48% and a Total impurities ([1]; 25° C./60% RH, 12 mos.) of 0.51%. For the same compound, the Total impurities ([1]; 25° C./60% RH, 24 mos.) was 0.59%, the Total impurities ([1]; 25° C./60% RH, Initial) was 0.5% and the Total impurities ([1]; 40° C./75% RH, 3 mos.) was 0.47%. It also gave a Total impurities ([1]; 40° C./75% RH, 6 mos.) of 0.47%, a Total impurities ([1]; 40° C./75% RH, Initial) of 0.5% and a Total impurities ([2]; light source option 2, 8 days) of 0.64%. For the same compound, the Total impurities ([2]; light source option 2, Initial) was 0.58%, the “Appearance after photostability exposure” value ([2]; samples directly exposed to UV/Fluorescent conditions) was “change in appearance from an off-white powder to a pale-colored powder” and the “Water Content, Desorption” value ([3]; 25° C., 10% RH) was −0.12 % w/w. For the same compound, the “Water Content, Sorption” value ([3]; 25° C., 10% RH) was 0.00 % w/w, the “Water Content, Desorption” value ([3]; 25° C., 20% RH) was −0.1 % w/w and the “Water Content, Sorption” value ([3]; 25° C., 20% RH) was 0.02 % w/w. For the same compound, the “Water Content, Desorption” value ([3]; 25° C., 30% RH) was −0.07 % w/w, the “Water Content, Sorption” value ([3]; 25° C., 30% RH) was 0.04 % w/w and the “Water Content, Desorption” value ([3]; 25° C., 40% RH) was −0.06 % w/w. For the same compound, the “Water Content, Sorption” value ([3]; 25° C., 40% RH) was 0.06 % w/w, the “Water Content, Desorption” value ([3]; 25° C., 50% RH) was −0.04 % w/w and the “Water Content, Sorption” value ([3]; 25° C., 50% RH) was 0.07 % w/w. For the same compound, the “Water Content, Desorption” value ([3]; 25° C., 60% RH) was −0.03 % w/w, the “Water Content, Sorption” value ([3]; 25° C., 60% RH) was 0.07 % w/w and the “Water Content, Desorption” value ([3]; 25° C., 70% RH) was −0.01 % w/w. The “Water Content, Sorption” value ([3]; 25° C., 70% RH) was 0.08 % w/w, the “Water Content, Desorption” value ([3]; 25° C., 80% RH) was 0.02 % w/w and the “Water Content, Sorption” value ([3]; 25° C., 80% RH) was 0.08 % w/w. The “Water Content, Desorption” value ([3]; 25° C., 90% RH) was 0.04 % w/w, the “Water Content, Sorption” value ([3]; 25° C., 90% RH) was 0.04 % w/w and the “Change in solid form” value ([3]; after the water sorption study) was “no change in solid form”. The Weight gain ([3]; up to 90% RH) was “no significant weight gain” and the Hygroscopicity ([3]; water sorption study, 25° C.) was “not hygroscopic”.
